Assay [1] has as its system Platelet. In words: Inhibition of ionomycin-induced platelet aggregation in rabbit platelet-rich plasma at 100 ug/mL by turbidimetric method. It is filed as functional, cell-free. Conditions: Oryctolagus cuniculus.
The subject of assay [2] is Platelet. The assay is described as follows: Inhibition of U46619-induced platelet aggregation in rabbit platelet-rich plasma by turbidimetric method. It is filed as functional, cell-free. Conditions: Oryctolagus cuniculus.
In assay [3] the test system is P388. The assay is described as follows: Cytotoxicity against mouse P388 cells by MTT assay. It is filed as functional. (Tetrazolium assays rely on reduction of a dye to a coloured formazan, in cell work by metabolically active cells.)
Assay [4] has as its system Platelet. In words: Inhibition of U46619-induced platelet aggregation in rabbit platelet-rich plasma at 100 ug/mL by turbidimetric method. The following applies: Oryctolagus cuniculus. It is filed as functional, cell-free.
The test system of assay [5] is Platelet. The assay is described as follows: Inhibition of thrombin-induced platelet aggregation in rabbit platelet-rich plasma at 100 ug/mL by turbidimetric method. The format is functional, cell-free. Conditions: Oryctolagus cuniculus.

Molecules are shown by their SMILES. pIC50: −log10 of the molar value. Calls of active or inactive are those of the source. The rule behind the calls is not given here.

In the case of `CCCCCCCCCCCCCCCC(=O)OC[C@@H](O)CO[C@@H]1O[C@H](CO)[C@H](O)[C@H](O)C1O` (single isomer, unassigned), the outcome in assay [1] and in assay [5] was inactive. Moreover, the negative logarithm of the IC50 (pIC50) in assay [2] was 4.22. This compound registered an Activity in assay [3] of over 50 µg/mL. Moreover, the outcome in assay [4] was Active.

In the case of `CCCCCCCCCCCCCC(=O)OC[C@@H](O)COP(=O)([O-])OCC[N+](C)(C)C`, the outcome in assay [1], in assay [4] and in assay [5] was Active.

What is called pIC50 is the IC50 on a negative log10 scale, so that one unit is a factor of ten.

Values taken from ChEMBL document CHEMBL1158203, “A novel monogalactosylacylglycerol with inhibitory effect on platelet aggregation from the cyanophyceae Oscillatoria rosea” (J Nat Prod, 1996).
